Laboratory results from patent US20060069132A1, “Azolecarboxamide herbicides” (priority 2004, published 2006).

Tests used:
wild oat = experiment: Test B postemergence herbicide test; assay type: in vivo, Avena fatua; conditions: scale 0 (no effect) to 100 (complete control)
Outline: (§1)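 Visual ratings, 0 (no effect) to 100 (complete control), made versus controls after 13–15 d greenhouse. Paddy plants treated at 2-leaf stage; postemergence plants at 1- to 4-leaf stage, 2–18 cm tall.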

blackgrass = experiment: Test B postemergence herbicide test; assay type: in vivo, Alopecurus myosuroides; conditions: scale 0 (no effect) to 100 (complete control)
Outline: (§2)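 Formulated test chemicals went onto postemergence plants measuring 2 to 18 cm, at one to four leaves. For the paddy assay, species had reached two leaves. Scoring took place 13–15 days later by eye, relative to untreated plants, using 0 for no effect up to 100 for full control.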

large crabgrass [1] = experiment: Test A pre-/postemergence herbicide test; assay type: in vivo, Digitaria sanguinalis; conditions: for Plant response rating, Crabgrass, Large: Postemergence; for Crabgrass, Large plant response rating: Preemergence
Outline: (§3)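 Visual injury rating on a 0–100 scale (0 no effect, 100 complete control) versus untreated controls, about ten days after treatment in greenhouse. Pre: directed soil spray onto seeded sandy loam. Post: spray to runoff on plants 2–10 cm tall at one- to two-leaf stage.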

barnyardgrass [2] = experiment: Test A pre-/postemergence herbicide test; assay type: in vivo, Echinochloa crus-galli; conditions: for Plant response rating, Barnyardgrass: Postemergence; for Barnyardgrass plant response rating: Preemergence
Outline: as §3

pigweed = experiment: Test B pre-/postemergence herbicide test; assay type: in vivo, Amaranthus retroflexus
Outline: (§4)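 Flooded paddy rice and barnyardgrass were treated at the 2-leaf stage; upland plantings received compound either on sown seed or on 1- to 4-leaf seedlings. All were kept 13–15 days in a greenhouse and scored visually, 0–100, relative to untreated plants.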

rice [3] = experiment: Test B pre-/postemergence herbicide test; assay type: in vivo, Oryza sativa; conditions: preemergence, 125 g ai/ha; 0 to 100 scale, 0 is no effect, 100 is complete control
Outline: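 Evaluation is visual, comparing treated with control plants on a scale where 0 means no effect and 100 means full control. Treatments were preemergence, or postemergence on seedlings 2–18 cm tall, and held 13–15 days in the greenhouse.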

[4] = tested on: small flower umbrella sedge; experiment: Test B flooded paddy test; assay type: in vivo, Cyperus difformis; conditions: 1000 g ai/ha, visual rating, scale 0 to 100 (0 no effect, 100 complete control), 13 to 15 days
Outline: as §2

velvetleaf [5] = experiment: Test A pre-/postemergence herbicide test; assay type: in vivo, Abutilon theophrasti; conditions: for Velvetleaf plant response rating: Preemergence, visual rating, 0 to 100 scale (0 no effect, 100 complete control)
Outline: as §3

giant foxtail [6] = experiment: Test A pre-/postemergence herbicide test; assay type: in vivo, Setaria faberi; conditions: for Plant response rating, Foxtail, Giant: Postemergence; for Foxtail, Giant plant response rating: Preemergence
Outline: as §3

ducksalad = experiment: Test B flooded paddy test; assay type: in vivo, Heteranthera limosa; conditions: 1000 g ai/ha, visual rating, scale 0 to 100 (0 no effect, 100 complete control), 13 to 15 days
Outline: as §2

giant foxtail [7] = experiment: Test B pre-/postemergence herbicide test; assay type: in vivo, Setaria faberi
Outline: as §4

morningglory [8] = experiment: Test A pre-/postemergence herbicide test; assay type: in vivo, Ipomoea spp.; conditions: for Plant response rating, Morningglory: Postemergence; for Morningglory plant response rating: Preemergence
Outline: as §3

cocklebur = experiment: Test B pre-/postemergence herbicide test; assay type: in vivo, Xanthium strumarium
Outline: (§5)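 Plants compared with untreated controls 13–15 days post-treatment and given a visual 0–100 injury score. Applications: preemergence to seeds; postemergence at 1- to 4-leaf (2–18 cm); paddy species flooded, 2-leaf stage. Vehicle non-phytotoxic, surfactant included.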

barnyardgrass [9] = experiment: Test B pre-/postemergence herbicide test; assay type: in vivo, Echinochloa crus-galli
Outline: as §5

corn = experiment: Test B pre-/postemergence herbicide test; assay type: in vivo, Zea mays
Outline: as §4

Surinam grass = experiment: Test B pre-/postemergence herbicide test; assay type: in vivo, Urochloa decumbens
Outline: as §4

wheat = experiment: Test B postemergence herbicide test; assay type: in vivo, Triticum aestivum; parameters: key to Wheat plant response rating: 0 = no effect, 100 = complete control; conditions: scale 0 (no effect) to 100 (complete control)
Outline: as §1

velvetleaf [10] = experiment: Test B pre-/postemergence herbicide test; assay type: in vivo, Abutilon theophrasti
Outline: as §4

barnyardgrass [11] = experiment: Test B flooded paddy test; assay type: in vivo, Echinochloa crus-galli; conditions: 1000 g ai/ha, visual rating, scale 0 to 100 (0 no effect, 100 complete control), 13 to 15 days
Outline: as §2

lambsquarters = experiment: Test B pre-/postemergence herbicide test; assay type: in vivo, Chenopodium album
Outline: as §4

redroot pigweed = experiment: Test A pre-/postemergence herbicide test; assay type: in vivo, Amaranthus retroflexus; conditions: for Plant response rating, Pigweed: Postemergence; for Pigweed plant response rating: Preemergence
Outline: as §3

rice [12] = experiment: Test B flooded paddy test; assay type: in vivo, Oryza sativa; conditions: 1000 g ai/ha, visual rating, scale 0 to 100 (0 no effect, 100 complete control), 13 to 15 days
Outline: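 After treating 2-leaf paddy plants or 2–18 cm postemergence plants (1 to 4 leaves) with formulated chemical, researchers kept them in a greenhouse for 13–15 days. Effects were judged visually versus controls: 0 indicates none, 100 total control.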

morningglory [13] = experiment: Test B pre-/postemergence herbicide test; assay type: in vivo, Ipomoea coccinea
Outline: as §5

large crabgrass [14] = experiment: Test B pre-/postemergence herbicide test; assay type: in vivo, Digitaria sanguinalis
Outline: as §4

[15] = Postemergence, 500 g ai/ha, visual rating after 13 to 15 days
[16] = postemergence, 125 g ai/ha, visual rating
[17] = 500 g ai/ha, 0 to 100 scale, 0 no effect, 100 complete control
[18] = 2000 g ai/ha, 0 to 100 scale, 0 no effect, 100 complete control
[19] = 500 g ai/ha, visual rating, 0 to 100 scale (0 no effect, 100 complete control)
[20] = Postemergence, 500 g ai/ha, visual rating after 13 to 15 days, scale 0 (no effect) to 100 (complete control)
[21] = postemergence, 125 g ai/ha, visual rating, scale 0 (no effect) to 100 (complete control)
[22] = preemergence, 125 g ai/ha, 0 to 100 scale, 0 is no effect, 100 is complete control
[23] = Preemergence, 500 g ai/ha, scale 0 to 100

CCn1nc(C(C)(C)C)cc1C(=O)Nc1cccc2c1CCN(C1CCCC1)C2=O [Compound 66]
Plant response rating, Oat, Wild (wild oat; [15]): 10 | Oat, Wild plant response rating (wild oat; [16]): 10 | Plant response rating, Blackgrass (blackgrass; [15]): 20 | Blackgrass plant response rating (blackgrass; [16]): 0 | Plant response rating, Crabgrass, Large (large crabgrass [1]; [17]): 0 | Plant response rating, Crabgrass, Large (large crabgrass [1]; [18]): 0 | Crabgrass, Large plant response rating (large crabgrass [1]; [19]): 0 | Crabgrass, Large plant response rating (large crabgrass [1]; [18]): 0 | Plant response rating, Barnyardgrass (barnyardgrass [2]; [17]): 0 | Plant response rating, Barnyardgrass (barnyardgrass [2]; [18]): 0 | Barnyardgrass plant response rating (barnyardgrass [2]; [19]): 0 | Barnyardgrass plant response rating (barnyardgrass [2]; [18]): 20 | Plant response rating, Pigweed (pigweed; [20]): 30 | Pigweed plant response rating (pigweed; [21]): 20 | Plant response rating, Pigweed (pigweed; [22]): 0 | Plant response rating, Rice (rice [3]): 0 | Sedge, Umbrella plant response rating [4]: 10 | Plant response rating, Velvetleaf (velvetleaf [5]; Postemergence, 2000 g ai/ha, 0 to 100 scale, 0 no effect, 100 complete control): 0 | Velvetleaf plant response rating (velvetleaf [5]; 500 g ai/ha): 0 | Velvetleaf plant response rating (velvetleaf [5]; 2000 g ai/ha): 0 | Plant response rating, Foxtail, Giant (giant foxtail [6]; [17]): 0 | Plant response rating, Foxtail, Giant (giant foxtail [6]; [18]): 0 | Foxtail, Giant plant response rating (giant foxtail [6]; [19]): 0 | Foxtail, Giant plant response rating (giant foxtail [6]; [18]): 0 | Ducksalad plant response rating (ducksalad): 0 | Plant response rating, Foxtail, Giant (giant foxtail [7]; [20]): 20 | Foxtail, Giant plant response rating (giant foxtail [7]; [23]): 10 | Foxtail, Giant plant response rating (giant foxtail [7]; [21]): 0 | Plant response rating, Foxtail, Giant (giant foxtail [7]; [22]): 0 | Plant response rating, Morningglory (morningglory [8]; [17]): 0 | Plant response rating, Morningglory (morningglory [8]; [18]): 0 | Morningglory plant response rating (morningglory [8]; [19]): 0 | Morningglory plant response rating (morningglory [8]; [18]): 0 | Plant response rating, Cocklebur (cocklebur; [20]): 30 | Cocklebur plant response rating (cocklebur; [23]): 0 | Cocklebur plant response rating (cocklebur; [21]): 20 | Plant response rating, Cocklebur (cocklebur; [22]): 0 | Plant response rating, Barnyardgrass (barnyardgrass [9]; [20]): 10 | Barnyardgrass plant response rating (barnyardgrass [9]; [23]): 30 | Barnyardgrass plant response rating (barnyardgrass [9]; [21]): 0 | Plant response rating, Barnyardgrass (barnyardgrass [9]; [22]): 0 | Plant response rating, Corn (corn; [20]): 20 | Corn plant response rating (corn; [23]): 0 | Corn plant response rating (corn; [21]): 10 | Plant response rating, Corn (corn; [22]): 0 | Plant response rating, Surinam Grass (Surinam grass; [20]): 10 | Surinam Grass plant response rating (Surinam grass; [21]): 10 | Plant response rating, Surinam Grass (Surinam grass; [22]): 0 | Plant response rating, Wheat (wheat; [15]): 10 | Wheat plant response rating (wheat; [16]): 0 | Plant response rating, Velvetleaf (velvetleaf [10]; [20]): 10 | Velvetleaf plant response rating (velvetleaf [10]; [21]): 10 | Plant response rating, Velvetleaf (velvetleaf [10]; [22]): 0 | Barnyardgrass plant response rating (barnyardgrass [11]): 10 | Plant response rating, Lambsquarters (lambsquarters; [20]): 70 | Lambsquarters plant response rating (lambsquarters; [21]): 60 | Plant response rating, Lambsquarters (lambsquarters; [22]): 0 | Plant response rating, Pigweed (redroot pigweed; [17]): 10 | Plant response rating, Pigweed (redroot pigweed; [18]): 10 | Pigweed plant response rating (redroot pigweed; [19]): 0 | Pigweed plant response rating (redroot pigweed; [18]): 0 | Rice plant response rating (rice [12]): 0 | Plant response rating, Morningglory (morningglory [13]; [20]): 20 | Morningglory plant response rating (morningglory [13]; [21]): 20 | Plant response rating, Morningglory (morningglory [13]; [22]): 0 | Plant response rating, Crabgrass, Large (large crabgrass [14]; [20]): 10 | Crabgrass, Large plant response rating (large crabgrass [14]; [23]): 10 | Crabgrass, Large plant response rating (large crabgrass [14]; [21]): 0 | Plant response rating, Crabgrass, Large (large crabgrass [14]; [22]): 0
